From patent publication US20230219965A1 (KSQ Therapeutics, Inc., priority 2020, published 2023)
Like-named read-outs stand apart in the source and are kept apart here.

Columns and labels:
[1] = Liver microsomal metabolic stability, human liver microsomes (HLM); conditions: human, liver microsomes
USP1/UAF1 enzyme = USP1/UAF1 enzyme (Homo sapiens, UniProt O94782); assay: USP1/UAF1 deubiquitination assay (ubiquitin-rhodamine 110 substrate); type: biochemical; conditions: read-out: USP1 IC50 (Ub-Rho)
Chain of USP1/UAF1 enzyme (O94782 whole entry): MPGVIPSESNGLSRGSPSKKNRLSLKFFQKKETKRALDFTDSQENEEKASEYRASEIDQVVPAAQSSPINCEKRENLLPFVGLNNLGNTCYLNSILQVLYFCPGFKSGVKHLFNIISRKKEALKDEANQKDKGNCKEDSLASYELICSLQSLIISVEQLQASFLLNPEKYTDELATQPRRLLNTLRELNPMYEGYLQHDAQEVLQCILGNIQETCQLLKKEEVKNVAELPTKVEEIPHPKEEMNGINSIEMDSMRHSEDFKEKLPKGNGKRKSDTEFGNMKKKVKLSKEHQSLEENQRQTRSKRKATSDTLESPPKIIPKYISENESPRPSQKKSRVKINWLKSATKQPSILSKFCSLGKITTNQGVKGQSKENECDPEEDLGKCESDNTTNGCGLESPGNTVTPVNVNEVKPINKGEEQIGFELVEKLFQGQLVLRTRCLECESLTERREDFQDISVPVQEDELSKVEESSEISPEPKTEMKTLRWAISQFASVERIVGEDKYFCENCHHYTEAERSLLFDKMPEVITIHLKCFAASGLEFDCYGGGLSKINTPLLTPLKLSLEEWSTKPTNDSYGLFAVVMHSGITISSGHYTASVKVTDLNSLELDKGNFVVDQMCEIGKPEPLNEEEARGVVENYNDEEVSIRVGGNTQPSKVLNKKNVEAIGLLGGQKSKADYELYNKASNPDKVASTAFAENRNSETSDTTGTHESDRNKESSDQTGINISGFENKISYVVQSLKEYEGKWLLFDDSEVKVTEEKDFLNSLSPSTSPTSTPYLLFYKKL
Chain of USP1/UAF1 enzyme (Q8TAF3 whole entry partner): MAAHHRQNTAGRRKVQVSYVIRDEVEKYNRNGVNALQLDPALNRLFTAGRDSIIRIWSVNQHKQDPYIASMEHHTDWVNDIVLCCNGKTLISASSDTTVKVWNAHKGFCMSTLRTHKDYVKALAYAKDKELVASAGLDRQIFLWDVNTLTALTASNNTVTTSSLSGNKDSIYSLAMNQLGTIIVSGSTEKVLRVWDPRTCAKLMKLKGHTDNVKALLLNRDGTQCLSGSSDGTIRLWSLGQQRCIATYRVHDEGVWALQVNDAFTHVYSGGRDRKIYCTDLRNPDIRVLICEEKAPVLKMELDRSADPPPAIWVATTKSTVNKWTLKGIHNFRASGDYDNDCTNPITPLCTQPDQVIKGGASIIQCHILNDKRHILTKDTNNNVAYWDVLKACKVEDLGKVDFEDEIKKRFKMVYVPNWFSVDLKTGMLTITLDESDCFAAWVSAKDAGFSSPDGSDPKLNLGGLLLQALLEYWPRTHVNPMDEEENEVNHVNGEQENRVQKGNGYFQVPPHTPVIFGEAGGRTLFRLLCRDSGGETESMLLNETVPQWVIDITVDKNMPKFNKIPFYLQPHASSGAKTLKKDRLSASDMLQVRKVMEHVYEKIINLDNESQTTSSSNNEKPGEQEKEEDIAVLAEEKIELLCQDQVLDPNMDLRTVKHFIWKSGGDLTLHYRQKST
Procedure, shortened: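 Cleavage of 150 nM ubiquitin-rhodamine 110 by 0.05 nM USP1/UAF1 was followed as fluorescence (Ex480/Em540, kinetic, 30 min) in Tris-HCl pH 7.8 buffer with EDTA, BSA, DTT and Tween-20. Compounds, top 10 μM, were preincubated with enzyme 10 min; % inhibition against no-enzyme and DMSO wells gave four-parameter IC50s.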

[2] = ADME solubility determination in PBS at pH 2.0 and pH 7.4; type: physicochemical; conditions: phosphate buffered saline, 25 °C, thermodynamic from solid
Procedure, shortened: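 Solubility was read by LC-MS/MS on centrifuged supernatants, calibrated to a known-concentration standard and corrected for dilution. Compound, dried down from 10 mM DMSO stock, was equilibrated 24 h at 25° C with shaking in PBS at pH 2.0 or pH 7.4.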

[3] = Liver microsomal metabolic stability, rat liver microsomes (RLM); conditions: rat, liver microsomes, t1/2 (min) in RLM, 1 μM compound, 1 mg/mL microsomes, NADPH
[4] = test system: Ub-PCNA levels in the nucleus of ES2 cells (USP1 activity); assay: ES2 Ub-PCNA immunofluorescence (IF) assay; type: cell-based; conditions: Homo sapiens, ES-2; ES2 cells, 3 hours, Ub-PCNA immunofluorescence; read-out: USP1 IC50 (Ub-PCNA)
Protocol: USP1 is a deubiquitinating enzyme that removes ubiquitin from mono-ubiquitinated Proliferating Cell Nuclear Antigen (Ub-PCNA). The levels of Ub-PCNA in the nucleus of cells can be used to assess the activity of USP1. An immunofluorescence assay can be established to monitor Ub-PCNA levels in the ovarian cancer cell line, ES2.
An assay can be performed by first plating 5000 ES2 cells per well in black 96 well plates (Corning #3904) and then incubating overnight at 37° C. and 5% CO2. Compounds, resuspended in DMSO, can be added to the cells, to a final DMSO concentration of 0.3%. Plates can be incubated at 37° C. and 5% CO2 for 3 hours.
Cells can be then fixed and stained by first removing the media from each plate and fixing the cells with −20° C. methanol for 5 minutes at room temperature. Fixation plates can be washed with Tris buffered saline with tween (Boston Bioproducts #IBB-855) 5 times for 5 minutes each. Plates can be blocked for 1 hour with 50 μl of Odyssey blocking buffer (Licor #327-50000) at room temperature with rocking. Block can be removed from all wells and 50 μl of primary antibody was added to each well. Ub-PCNA ab (Cell Signaling Technology #13439) can be diluted at 1:400 in Odyssey blocking buffer. Plates can be sealed and incubated overnight at 4° C. Primary antibodies can be removed from the plates and plates can be washed with Tris buffered saline with tween 5 times for 5 minutes. Plates can be stained for 1 hour at room temperature with rocking with 50 μl of secondary antibodies diluted 1:10,000 in Odyssey blocking buffer at room temperature (anti-rabbit Alexa 488). Antibodies can be removed from the plates and plates can be washed with Tris buffered saline with tween 3 times for 5 minutes. Plates can be washed once with DAPI (Chemometec #910-3012) stain diluted 1:5000 (Stock solution of 500 μg/ml) in tris buffered saline with tween for 5 minutes. DAPI stain can be removed and plates can be washed one additional time for 5 minutes with tris buffered saline with tween. Wash can be removed from the plate and 100 μl tris buffered saline with tween can be added back to all wells, Plates can be sealed with Foil seals or black plate seals and plates can be stored at 4° C. until they can be imaged.
Imaging of the plates can be performed by first locating the nuclei using the DAPI stain. A mask can be created by drawing a circle slightly smaller than each nucleus. Ub-PCNA intensities can be measured for each individual nucleus counted. A histogram of all Ub-PCNA nuclear intensities measured in untreated wells can be generated and a 95% cutoff can be established. This 95% cutoff can be used to determine the number of Positive cells that have Ub-PCNA values higher than the 95% cutoff. The number of positive cells can be expressed as a percentage by dividing by the total number of cells in the well. This percent positive value can be used to graph all data and to determine AC50 values.
USP1 is a deubiquitinating enzyme that removes ubiquitin from mono-ubiquitinated
Proliferating Cell Nuclear Antigen (Ub-PCNA). The levels of Ub-PCNA in the nucleus of cells was used to assess the activity of USP1. An immunofluorescence assay was established to monitor Ub-PCNA levels in the ovarian cancer cell line, ES2.
This assay was performed by first plating 5000 ES2 cells per well in black 96 well plates (Corning #3904) and then incubated overnight at 37° C. and 5% CO2. Compounds, resuspended in DMSO, were added to the cells, to a final DMSO concentration of 0.3%. Plates were incubated at 37° C. and 5% CO2 for 3 hours.
Cells were then fixed and stained by first removing the media from each plate and fixing the cells with −20° C. methanol for 5 minutes at room temperature. Following fixation plates were washed with Tris buffered saline with tween (Boston Bioproducts ABB-855) 5 times for 5 minutes each. Plates were blocked for 1 hour with 50μ.1 of Odyssey blocking buffer (Licor #327-50000) at room temperature with rocking. […]

[5] = pH 2, aqueous buffer, PBS pH 2.0, 25° C., read-out: Solubility at pH 2.0
[6] = pH 7.4, aqueous buffer, PBS pH 7.4, 25° C., read-out: Solubility at pH 7.4

half-life at 1 μM [1] [min] | IC50 (USP1/UAF1 enzyme) [nM] | solubility at 24 h [2, 5] [µM] | solubility at 24 h [2, 6] [µM] | half-life at 1 μM [3] [min] | IC50 [4] [nM] | SMILES
> 25 | < 100 | ≥ 10 | < 10 | > 25 | 100 to 500 | COc1ncnc(C2CC2)c1-c1nc2n(n1)CCC(=O)N2Cc1ccc(-c2nc(C(F)(F)F)cn2C)cc1 [Example 43]
> 25 | < 100 | < 10 | < 10 | > 25 | < 100 | CCn1cc(C(F)(F)F)nc1-c1ccc(CN2C(=O)CCn3nc(-c4c(OC)ncnc4C4CC4)nc32)cc1F [Example 44]
> 25 | 100 to 500 | ≥ 10 | ≥ 10 | > 25 | 100 to 500 | COc1cc(CN2C(=O)CCn3nc(-c4c(OC)ncnc4C(C)C)nc32)ccc1-c1nc(C(F)(F)F)cn1C(C)C [Example 46]
< 25 | < 100 | ≥ 10 | < 10 | < 25 | < 100 | CCn1cc(C(F)(F)F)nc1-c1ccc(CN2c3cc(-c4c(OC)ncnc4C4CC4)nn3CCC2C)cc1F (stereo not drawn) [Example 49]
< 25 | < 100 | < 10 | < 10 | < 25 | < 100 | CC1CCn2nc(-c3c(Cl)cnn3C(C)C)cc2N1Cc1ccc(-c2nc(C(F)(F)F)cn2C(C)C)c(F)c1 (stereo not drawn) [Example 50]
< 25 | < 100 | < 10 | < 10 | < 25 | 100 to 500 | Cc1cnn(C(C)C)c1-c1cc2n(n1)CCCN2Cc1ccc(-c2nc(C(F)(F)F)nn2C)cc1 [Example 53]

The remaining lines, values behind:

SMILES | half-life at 1 μM [1] [min] | IC50 (USP1/UAF1 enzyme) [nM] | solubility at 24 h [2, 5] [µM] | solubility at 24 h [2, 6] [µM] | half-life at 1 μM [3] [min] | IC50 [4] [nM]
COc1ncnc(C2CCC2)c1-c1cc2n(n1)CCC(=O)N2Cc1ccc(-c2nc(C(F)(F)F)cn2C)c(F)c1 [Example 22] | < 25 | < 100 | ≥ 10 | < 10 | < 25 | < 100
COc1ncnc(C2CC2)c1-c1cc2n(n1)CCCN2Cc1ccc(-c2nc(C(F)(F)F)cn2C)cc1 [Example 24, 2-(4-cyclopropyl-6-methoxypyrimidin-5-yl)-4-(4-(1-methyl-4-(trifluoromethyl)-1H-imidazol-2-yl)benzyl)-4,5,6,7-tetrahydropyrazolo[1,5-α]pyrimidine] | < 25 | < 100 | ≥ 10 | ≥ 10 | < 25 | < 100
COc1ncnc(C)c1-c1cc2n(n1)CCCN2Cc1ccc(-c2nc(C(F)(F)F)cn2C)cc1 [Example 25] | < 25 | 100 to 500 | ≥ 10 | ≥ 10 | < 25 | > 500
COc1ncnc(C2CC2)c1-c1cc2n(n1)CCCN2Cc1ccc(-n2nc(C(F)(F)F)cc2C)cc1 [Example 27] | < 25 | < 100 | ≥ 10 | < 10 | < 25 | < 100
CCn1cc(C(F)(F)F)nc1-c1ccc(CN2CC3(CC3)Cn3nc(-c4c(OC)ncnc4C4CC4)cc32)cc1F [Example 30] | < 25 | < 100 | ≥ 10 | < 10 | < 25 | < 100
COc1ncnc(C2CC2)c1-c1nn2c(c1Cl)N(Cc1ccc(-c3nc(C(F)(F)F)cn3C)cc1)C(=O)CC2 [Example 33, 3-chloro-2-(4-cyclopropyl-6-methoxypyrimidin-5-yl)-4-(4-(1-methyl-4-(trifluoromethyl)-1H-imidazol-2-yl)benzyl)-6,7-dihydropyrazolo[1,5-α]pyrimidin-5(4H)-one] | > 25 | < 100 | < 10 | < 10 | > 25 | < 100
COc1ncnc(C2CC2)c1-c1nn2c(c1C)N(Cc1ccc(-c3nc(C(F)(F)F)cn3C)cc1)C(=O)CC2 [Example 35, 2-(4-cyclopropyl-6-methoxypyrimidin-5-yl)-3-methyl-4-(4-(1-methyl-4-(trifluoromethyl)-1H-imidazol-2-yl)benzyl)-6,7-dihydropyrazolo[1,5-α]pyrimidin-5(4H)-one] | < 25 | 100 to 500 | < 10 | < 10 | > 25 | > 500
Cc1cnn(C(C)C)c1-c1nc2n(n1)CCC(=O)N2Cc1ccc(-c2nc(C(F)(F)F)cn2C)cc1 [Example 37, 2-(1-isopropyl-4-methyl-1H-pyrazol-5-yl)-4-(4-(1-methyl-4-(trifluoromethyl)-1H-imidazol-2-yl)benzyl)-6,7-dihydro-[1,2,4]triazolo[1,5-α]pyrimidin-5(4H)-one] | < 25 | < 100 | < 10 | < 10 | < 25 | < 100
Cc1cnn(C(C)C)c1-c1nc2n(n1)CCC(=O)N2Cc1ccc(-c2nc(C(F)(F)F)cn2C(C)C)cc1 [Example 38] | < 25 | < 100 | < 10 | < 10 | < 25 | < 100
CC(C)n1ncc(Cl)c1-c1nc2n(n1)CCC(=O)N2Cc1ccc(-c2nc(C(F)(F)F)cn2C)cc1 [Example 39] | > 25 | < 100 | < 10 | < 10 | > 25 | < 100
CC(C)n1cc(C(F)(F)F)nc1-c1ccc(CN2C(=O)CCn3nc(-c4c(Cl)cnn4C(C)C)nc32)cc1F [Example 40] | > 25 | < 100 | < 10 | < 10 | > 25 | 100 to 500
CC(C)n1cc(C(F)(F)F)nc1-c1ccc(CN2C(=O)CCn3nc(-c4c(Cl)cnn4C(C)C)nc32)cc1 [Example 41] | > 25 | < 100 | < 10 | < 10 | > 25 | < 100
CCn1cc(C(F)(F)F)nc1-c1ccc(CN2C(=O)CCn3nc(-c4c(Cl)cnn4C(C)C)nc32)cc1F [Example 42] | > 25 | < 100 | < 10 | < 10 | > 25 | < 100
